The values below come from a melting point compilation (Tetko et al.; mined from patent text by program, amines drawn as free bases though some values may be those of a salt).

For `CC(=O)Nc1cc(N(C)C)ccc1C1(c2ccc(N(C)C)cc2N(C)C)OC(=O)c2ccccc21` (stereo unspecified), the melting point (usually the temperature, or range, at which the solid turns liquid) is 97 to 136 °C.
In turn, `CCCCNc1cc(CN)cc(S(N)(=O)=O)c1Oc1ccccc1` gave a melting point of 195 to 198 °C.
With `CCCC(Oc1ccc2c(-c3ccc(Cl)cc3)noc2c1)C(=O)OCC` (stereo unspecified) the figure was 88 °C; with `CCCN(CCC)C1CCc2cc(NC(C)=O)ccc2C1` (stereo unspecified), 119 to 121 °C; with `O=C1c2ccccc2CN1CCN1CCC(c2noc3cc(F)ccc23)CC1`, 166 to 168 °C.
With `c1ccc(N2c3ccccc3Sc3ccccc32)cc1` the figure was 93 to 94 °C; with `COC(=O)c1cnc2c(O)cccc2c1`, 140 °C; with `CCOc1ccnc(CSc2nc3cc4c(cc3[nH]2)C(C)(C)C(=O)C4(C)C)c1C`, 175 to 176 °C.
`CC(C)S(=O)(=O)c1cccc(OS(C)(=O)=O)n1` showed a melting point of 70.5 to 71.5 °C.
The compound `CC(C)(C)C(=O)Oc1c(N2CCCC2)c(=O)n(-c2ccccc2)c2ncccc12` had a melting point of 163 to 165 °C.
In the case of `COC(=O)c1ccc(NS(=O)(=O)c2ccc(F)cc2)cn1`, the melting point lay in the range of 183 to 185 °C.
`OC1COC(O)C(F)(F)C1O` (stereo unspecified) returned a melting point of 146 to 148 °C.
`CCOC(=O)N1C=CC(c2c(-c3ccccc3)nn3ccccc23)C=N1` (stereo unspecified) returned a melting point of 173 to 174 °C.
With `CC(Sc1ccc(Cl)cc1Cl)C(=O)O` (racemic) the figure was 95 to 98 °C; with `O=C(CO)c1ccccc1F`, 51 to 54 °C; with `N#Cc1ccccc1Cn1cc(-c2ccnc(Cl)c2)n(-c2ccc(F)cc2)c1=O`, 109 °C.
With `CCOC(=NC(=O)c1ccc(Cl)c(Cl)c1)N1Cc2ccccc2-c2ccccc2C1` the figure was 138 °C; with `CCOC(=O)c1cn(-c2ccccc2)nc1OCc1ccc(OCc2nc(-c3ccco3)oc2C)c(OC)c1`, 150 to 151 °C; with `CSC1=NC(=O)C(=Cc2nc(C(C)(C)C)c(O)c(C(C)(C)C)n2)S1`, 205 to 208 °C.
For `C[C@H](c1ccccc1)N1C(=O)c2cccc([N+](=O)[O-])c2C1=O`, the melting point was in the range of 115 to 117 °C.
With `O=C1COc2ccc(C3=Nc4ccccc4SC3)cc2N1` the figure was 280 to 281 °C; with `FC(F)(F)c1ccccc1N=C1CCCc2cc3c(nc21)C(=Nc1ccccc1C(F)(F)F)CCC3`, 162 to 164 °C.
The value for `COc1ccc(C(C(=O)OC(C)(C)C)N(C(=O)CNC(=O)Nc2cccc(C)c2)c2ccccc2)cc1` (racemic) was 206 °C; that for `CC(=NNC(=S)N1CC2CCC(CC2)C1)c1ccccn1` was 156 °C.
`CC(=O)Nc1nc(C)c(S(=O)(=O)NC(C)(C)CO)s1` returned a melting point of 194 °C.
Regarding `CC1(O)CCCc2nc3ccccc3c(N)c21` (stereo unspecified), the melting point came out at 250 °C.
Take `Cc1oc(-c2ccc(Cl)cc2)cc1C(=O)Nc1cc(Cl)ccc1-c1noc(=O)[nH]1`: the melting point is 248 to 251 °C.
With `COC(=O)Cc1ccc(CN2CCN(C(c3ccccc3)c3ccc(Cl)cc3)CC2)cc1` (stereo unspecified), the melting point is 113 to 115 °C.
With `NC(=O)c1ccc(F)c2c1OCC(N(CCCc1c[nH]c3ccc(F)cc13)CC1CC1)C2` (stereo unspecified) the figure was 123 °C; with `O=S(=O)(c1ccccc1)C(CC(F)(F)F)c1ccc(C(O)(C(F)(F)F)C(F)(F)F)cc1` (stereo unspecified), 151 °C.
The value for `CNC(=O)[C@@H]1C[C@@H](OCC2CC2)CN1S(=O)(=O)c1ccc(Cl)c(COc2cccc3c(-n4ccnc4)cc(C)nc23)c1Cl` was 98 °C; that for `COCC(=O)Nc1c(Cl)c(C)cc2nc(OC)c(OC)nc12` was 170 to 171 °C; that for `CCOC(=O)c1c[nH]nc1-c1cccs1` was 123 to 124 °C.
For `O=C(C=Cc1ccccc1)NNC(=O)c1ccccc1O`, the melting point came to 271 °C.
Turning to `CC(=O)OC1CSC(Oc2cncc(-c3ccc(C)cc3)c2)C(OC(C)=O)C1OC(C)=O` (stereo unspecified), the melting point was 160 to 162 °C.
With `c1csc(-c2cnc(COc3ccc(CCCn4ccnc4)cc3)o2)c1` the figure was 75 to 76 °C.
The compound `Cc1nn(C)c(OCC(=O)C(C)(C)CCl)c1C(=O)c1ccc(Cl)cc1Cl` showed a melting point of 58 to 60 °C.
With `CCc1n[nH]c2c(=O)[nH]c(-c3cc(S(C)(=O)=O)ccc3OCc3ccccn3)nc12` the figure was 283 to 286 °C; with `CCOc1c(C(C)=O)cnc2c1cnn2Cc1ccco1`, 139 to 141 °C; with `C=C(C)C(OC(=O)Nc1cc(OC(=O)Oc2cc(NC(=O)OC(C(=C)C)C(=O)OC)c(F)cc2Cl)c(Cl)cc1F)C(=O)OC` (stereo unspecified), 72 to 74 °C.
The value for `Cc1ccc(C(=C/C=C/C(=O)O)c2ccc(C)cc2)cc1` was 224 to 226 °C; that for `CCOc1ccc(C(C)=O)cc1C(=O)O` was 122 to 125 °C; that for `Nc1nc2cc3c(cc2s1)OCO3` was 200 °C.
The value for `CCC1CCSc2ccc(Nc3ncc(Cl)c(Nc4ccccc4C(=O)NC)n3)nc2C1` (stereo unspecified) was 228 to 231 °C; that for `CC(=O)c1cc2c(cc1NC(=O)c1cccc3ccccc13)OCO2` was 143 to 144 °C.
With `CC(C)(C)CC(C)(C)NSc1nc2ccccc2s1`, the melting point worked out at 104 °C.
The value for `Nc1ncnc2c1c(Br)cn2COC(O)CCO` (stereo unspecified) was 170 to 172 °C; that for `CNc1ccccc1CS(=O)c1nc2ncccc2[nH]1` (stereo unspecified) was 120 °C; that for `COc1cccc(CNC(=O)c2nc3scc(COc4ccc(C(=O)O)cc4)c3c(=O)[nH]2)c1` was 297 to 299 °C.
With `CCOC(=O)C1=C(C)NC(C)=C(C(=O)OCC)C1c1c(SC)sc2ccccc12` the figure was 177 to 179 °C; with `CC(C)(Cc1ccc(S(=O)C(F)(F)F)cc1)C(O)c1cncnc1` (stereo unspecified), 122 °C; with `COC(=O)C(CC1CCCC1)c1ccc(S(C)(=O)=O)c(F)c1` (stereo unspecified), 66 to 68 °C.
`CS(=O)(=O)c1ccc(C2=C(c3ccccc3)C(=O)C2)cc1` returned a melting point of 139 to 140 °C.
In turn, `O=C1N=C(N2CCSCC2)SC1=Cc1cccc(-c2cc(F)c(O)c(C34CC5CC(CC(C5)C3)C4)c2)c1` showed a melting point of 180 to 184 °C.
With `COC(=O)[C@H](CC(C)C)NC(=O)[C@@H](O)[C@@H](Cc1ccc(SC)cc1)NC(=O)OCc1ccccc1` the figure was 130 to 132 °C; with `Cc1ccc(S(=O)(=O)OCC2CCc3ccc4[nH]c(=O)[nH]c4c3O2)cc1` (stereo unspecified), 205 °C; with `CC(=O)Nc1ccc(O[C@H](c2ccc([N+](=O)[O-])cc2)[C@@H](O)CO)cc1`, 110 to 111 °C.
With `O=S1(=O)CCN(CCCN2CCc3sc(Nc4ncc(F)cn4)nc3-c3c[nH]nc32)CC1` the figure was 272 to 273 °C; with `COc1cccc(S)c1S(N)(=O)=O`, 166 °C.
In the case of `FC(F)(F)c1ccc(-c2cc(C(F)(F)F)n3cnc(-c4cccnc4)c3n2)cc1`, the melting point turned out to be 231 °C.
As to `COc1cc(C=O)c([N+](=O)[O-])cc1OCCCCCCOC(C)=O`, the melting point lay in the range of 79.8 to 81.5 °C.
The value for `Cc1cc(Cc2cnc(NCCCCc3ncc(Br)cc3C)[nH]c2=O)cnc1CO` was 136 to 141 °C.
With `Cc1ccc(-c2ccc3c(c2)C=C(C(=O)Nc2ccc(CN4CCCCC4)cc2)C3)cc1` the figure was 219 to 220 °C; with `CC1(C)CCc2cc(S(=O)(=O)C[N+](=O)[O-])ccc2O1`, 85 to 86.5 °C; with `CCC1(CC)c2cc(-c3nc4ccccc4s3)ccc2-c2ccc(N(c3cccc(Oc4ccc([N+](=O)[O-])cc4)c3)c3cccc(Oc4ccc([N+](=O)[O-])cc4)c3)cc21`, 200 to 201 °C.
The value for `O=C(c1ccc(O)cc1)N1CCN(CC(O)Cn2c3ccccc3c3ccccc32)CC1` (stereo unspecified) was 184 °C.
`Cc1ccc2[nH]c(SCC(F)(F)F)nc2c1` gave a melting point of 159 to 161 °C.
`COC1C2=C3C(=CN1OC)OCCC3CC(C(N)=O)C2` (stereo unspecified) returned a melting point of 224 to 226 °C.
On to `COC(=O)c1sccc1Nc1ccc(Cl)cc1[N+](=O)[O-]`, for which the melting point lay in the range of 207 to 208 °C.
With `CC(C)(C)c1ccc(C2(C)CC(=Cc3ccccc3)CC2=O)cc1` (stereo unspecified) the figure was 140 to 143 °C; with `O=C(Nc1ccc2[nH]cc(C3CCNCC3)c2c1)c1ccc(F)cc1`, 229 to 230 °C; with `O=Cc1cccc2ncc(-c3ccccc3)nc12`, 149 °C.
With `Cc1nc2c(N)nc3ccccc3c2n1CCCCOCCCc1ccccc1` the figure was 105 to 106 °C.
With `Cc1cc(-n2ccnc2)c2cccc(OCc3c(Cl)ccc(S(=O)(=O)N4CCC[C@H]4C(=O)NCC4CCN(CC(=O)OC(C)(C)C)CC4)c3Cl)c2n1` the figure was 100 °C; with `CNC(=O)N(OC)c1ccc(Oc2ccc3sncc3c2)cc1`, 108 °C; with `CCOC(=O)N1CCc2c(sc3nc(-c4ccc(F)cc4)cn23)C1`, 164 to 166 °C.
In turn, `CCCCc1oc2ccccc2c1C(=O)NCc1ccc2c(-c3ccc(C)cc3)c(OCc3nnn[nH]3)ccc2c1` displayed a melting point of 162 to 166 °C.
Consider `NS(=O)(=O)c1cncc([N+](=O)[O-])c1`, for which the melting point stood at 168 °C.
With `Cc1cccc2c(=O)[nH]c(CCN3CCCC(O)C3)cc12` (stereo unspecified) the figure was 180 to 181 °C; with `O=C1C=CC(c2ccccc2)(c2ccccc2)C=C1O`, 145 °C.
The value for `CC(=O)NCCSCC(=O)[C@H](Cc1ccccc1)NC(=O)[C@H](CC(C)C)NC(=O)OCc1ccccc1` was 122 to 123 °C.
With `Nc1cc2c(c(C(=O)O)c1)CCCC2` the figure was 178 to 180 °C; with `O=c1ccc(C(F)(F)F)cn1Cc1ccc(F)cc1`, 70.1 to 72 °C.
In the case of `COc1cc(-c2cc(C(F)(F)F)nn2-c2ccc(S(C)(=O)=O)c(F)c2)ccc1-c1cocn1`, the melting point was 148 to 150 °C.
`CCOC(=O)CN1C(=O)C2(COc3cc(F)c(F)cc32)c2c(Br)cccc21` (stereo unspecified) yielded a melting point of 133 to 134 °C.
For the compound `COc1ccc(COC(=O)Nc2cc(-n3cccn3)nc(-c3ccco3)n2)cc1OC`, the melting point is 148 °C.
